For seven molecules, ΔTm results are on record in ChEMBL document CHEMBL1145498, “A systematic interaction map of validated kinase inhibitors with Ser/Thr kinases” (Proc Natl Acad Sci U S A, 2007).

In general, ΔTm refers to the change in melting temperature against a reference sample.

For assay [1], the target named is 5'-AMP-activated protein kinase catalytic subunit alpha-2 (Homo sapiens) (UniProt P54646).
Assay [2] concerns the target Calcium/calmodulin-dependent protein kinase type II subunit alpha (Homo sapiens) (UniProt Q9UQM7).
Assay [3] concerns the target Cyclin-dependent kinase 2 (Homo sapiens, UniProt P24941).
Assay [4] addresses Cyclin-dependent kinase-like 1 (Homo sapiens) (UniProt Q00532).
In assay [5] the target is Serine/threonine-protein kinase Chk2 (Homo sapiens, UniProt O96017).
The target of assay [6] is Dual specificity protein kinase CLK3 (Homo sapiens) (UniProt P49761).
Assay [7] has as its target Casein kinase I isoform gamma-2 (Homo sapiens) (UniProt P78368).
Assay [8] addresses Casein kinase I isoform gamma-3 (Homo sapiens) (UniProt Q9Y6M4).
Assay [9] has as its target Tyrosine-protein kinase JAK1 (Homo sapiens) (UniProt P23458).
In assay [10] the target is Mitogen-activated protein kinase 6 (Homo sapiens) (UniProt Q16659).
For assay [11], the target named is Serine/threonine-protein kinase PAK 5 (Homo sapiens) (UniProt Q9P286).
For assay [12], the target named is Serine/threonine-protein kinase PAK 6 (Homo sapiens) (UniProt Q9NQU5).
The target in assay [13] is Serine/threonine-protein kinase pim-1 (Homo sapiens) (UniProt P11309).
Assay [14] concerns the target Serine/threonine-protein kinase pim-2 (Homo sapiens, UniProt Q9P1W9).
Assay [15] has as its target Serine/threonine-protein kinase PLK1 (Homo sapiens) (UniProt P53350).
The target in assay [16] is T1, Serine/threonine-protein kinase PLK4 (Homo sapiens) (UniProt O00444).
T1 sequence (whole entry): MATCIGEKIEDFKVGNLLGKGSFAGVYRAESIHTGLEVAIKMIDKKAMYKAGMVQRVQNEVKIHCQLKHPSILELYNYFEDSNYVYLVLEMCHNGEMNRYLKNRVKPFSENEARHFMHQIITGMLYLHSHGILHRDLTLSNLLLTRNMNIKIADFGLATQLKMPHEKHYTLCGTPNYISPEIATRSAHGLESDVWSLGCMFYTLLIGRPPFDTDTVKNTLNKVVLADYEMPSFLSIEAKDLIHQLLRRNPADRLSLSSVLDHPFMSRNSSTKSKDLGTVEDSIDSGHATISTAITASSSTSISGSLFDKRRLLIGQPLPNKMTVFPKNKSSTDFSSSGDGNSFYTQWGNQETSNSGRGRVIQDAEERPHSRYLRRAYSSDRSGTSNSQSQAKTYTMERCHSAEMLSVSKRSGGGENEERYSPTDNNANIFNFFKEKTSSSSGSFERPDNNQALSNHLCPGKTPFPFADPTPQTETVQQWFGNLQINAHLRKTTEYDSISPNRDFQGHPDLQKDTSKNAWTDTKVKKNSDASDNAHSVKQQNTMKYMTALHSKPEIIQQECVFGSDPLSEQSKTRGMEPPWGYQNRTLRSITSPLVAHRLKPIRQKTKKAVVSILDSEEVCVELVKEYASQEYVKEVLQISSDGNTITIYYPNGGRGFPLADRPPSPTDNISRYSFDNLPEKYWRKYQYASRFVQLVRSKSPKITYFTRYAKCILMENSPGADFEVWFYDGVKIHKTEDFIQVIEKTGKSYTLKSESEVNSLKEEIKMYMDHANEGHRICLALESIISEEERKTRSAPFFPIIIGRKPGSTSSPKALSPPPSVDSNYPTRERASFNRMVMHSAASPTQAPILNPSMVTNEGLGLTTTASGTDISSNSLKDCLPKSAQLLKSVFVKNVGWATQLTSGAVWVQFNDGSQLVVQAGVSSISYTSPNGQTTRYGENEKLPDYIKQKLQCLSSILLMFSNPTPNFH

Assay [17] has as its target Serine/threonine-protein kinase 10 (Homo sapiens) (UniProt O94804).
Assay [18] concerns the target T2, Serine/threonine-protein kinase 17A (Homo sapiens) (UniProt Q9UEE5).
T2 sequence (whole entry): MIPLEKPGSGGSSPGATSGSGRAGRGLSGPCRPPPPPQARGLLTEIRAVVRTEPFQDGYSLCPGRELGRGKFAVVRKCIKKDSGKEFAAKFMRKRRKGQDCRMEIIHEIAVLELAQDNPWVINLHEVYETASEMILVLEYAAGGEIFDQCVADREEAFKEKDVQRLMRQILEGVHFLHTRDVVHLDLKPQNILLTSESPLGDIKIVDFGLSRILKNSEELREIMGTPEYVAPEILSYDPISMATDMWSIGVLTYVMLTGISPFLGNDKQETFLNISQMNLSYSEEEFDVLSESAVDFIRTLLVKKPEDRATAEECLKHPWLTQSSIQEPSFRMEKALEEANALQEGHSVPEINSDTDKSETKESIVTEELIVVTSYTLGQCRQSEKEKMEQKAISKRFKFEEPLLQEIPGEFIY

The target in assay [19] is Serine/threonine-protein kinase 26 (Homo sapiens) (UniProt Q9P289).

Sequence of Calcium/calmodulin-dependent protein kinase type II subunit alpha (Homo sapiens) (Q9UQM7 whole entry): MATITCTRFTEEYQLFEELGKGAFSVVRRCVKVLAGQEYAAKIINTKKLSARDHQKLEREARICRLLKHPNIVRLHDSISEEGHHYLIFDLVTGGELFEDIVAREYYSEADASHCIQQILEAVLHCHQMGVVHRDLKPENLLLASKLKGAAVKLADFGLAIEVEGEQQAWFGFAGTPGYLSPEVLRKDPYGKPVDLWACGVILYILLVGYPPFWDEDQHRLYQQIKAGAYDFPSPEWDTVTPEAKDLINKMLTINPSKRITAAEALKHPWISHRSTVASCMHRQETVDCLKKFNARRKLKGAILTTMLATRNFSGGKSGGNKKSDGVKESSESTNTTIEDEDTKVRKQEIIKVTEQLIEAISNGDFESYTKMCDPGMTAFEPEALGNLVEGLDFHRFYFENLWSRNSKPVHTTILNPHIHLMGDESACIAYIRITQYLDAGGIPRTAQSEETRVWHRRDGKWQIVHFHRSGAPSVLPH
Sequence of Tyrosine-protein kinase JAK1 (Homo sapiens) (P23458 whole entry): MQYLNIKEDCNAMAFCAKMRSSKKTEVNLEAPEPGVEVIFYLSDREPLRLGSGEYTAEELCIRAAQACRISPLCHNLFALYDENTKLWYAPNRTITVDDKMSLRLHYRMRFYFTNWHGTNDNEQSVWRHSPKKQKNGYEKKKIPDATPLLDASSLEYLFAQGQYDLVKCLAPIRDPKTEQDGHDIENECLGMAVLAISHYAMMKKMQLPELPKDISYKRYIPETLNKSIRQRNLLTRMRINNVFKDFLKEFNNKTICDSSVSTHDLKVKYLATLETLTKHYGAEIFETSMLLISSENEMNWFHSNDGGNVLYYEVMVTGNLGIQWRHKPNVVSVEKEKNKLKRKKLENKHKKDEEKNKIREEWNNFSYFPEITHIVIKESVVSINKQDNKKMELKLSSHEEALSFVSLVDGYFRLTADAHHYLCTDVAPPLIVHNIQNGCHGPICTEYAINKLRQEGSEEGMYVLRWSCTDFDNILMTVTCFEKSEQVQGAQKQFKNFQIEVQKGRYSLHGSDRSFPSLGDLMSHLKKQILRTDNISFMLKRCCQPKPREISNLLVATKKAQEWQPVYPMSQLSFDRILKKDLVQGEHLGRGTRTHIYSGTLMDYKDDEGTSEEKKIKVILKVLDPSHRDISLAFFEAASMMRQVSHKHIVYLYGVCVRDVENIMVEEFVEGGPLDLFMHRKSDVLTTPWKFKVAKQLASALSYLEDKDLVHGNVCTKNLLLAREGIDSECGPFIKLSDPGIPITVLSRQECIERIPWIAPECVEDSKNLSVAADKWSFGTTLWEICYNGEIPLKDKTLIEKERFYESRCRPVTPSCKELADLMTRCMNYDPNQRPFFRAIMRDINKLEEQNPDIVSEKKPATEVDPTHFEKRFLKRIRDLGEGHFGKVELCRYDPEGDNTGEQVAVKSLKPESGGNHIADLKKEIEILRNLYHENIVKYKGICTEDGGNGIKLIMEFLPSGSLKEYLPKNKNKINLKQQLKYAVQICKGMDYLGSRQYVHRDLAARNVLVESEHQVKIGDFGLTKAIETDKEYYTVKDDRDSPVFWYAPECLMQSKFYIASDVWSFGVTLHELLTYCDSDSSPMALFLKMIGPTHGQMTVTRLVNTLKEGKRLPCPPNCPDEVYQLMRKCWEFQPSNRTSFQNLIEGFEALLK
Sequence of Cyclin-dependent kinase-like 1 (Homo sapiens) (Q00532 whole entry): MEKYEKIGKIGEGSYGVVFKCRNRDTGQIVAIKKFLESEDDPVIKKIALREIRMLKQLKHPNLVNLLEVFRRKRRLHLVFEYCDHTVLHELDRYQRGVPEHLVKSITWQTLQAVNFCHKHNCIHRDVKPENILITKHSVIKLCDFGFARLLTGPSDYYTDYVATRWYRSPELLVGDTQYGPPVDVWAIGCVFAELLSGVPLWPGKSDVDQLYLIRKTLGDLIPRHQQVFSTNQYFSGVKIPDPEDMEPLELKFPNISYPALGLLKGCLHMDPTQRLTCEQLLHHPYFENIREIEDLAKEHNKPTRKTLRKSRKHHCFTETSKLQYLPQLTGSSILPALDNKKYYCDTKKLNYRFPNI
Sequence of Serine/threonine-protein kinase 10 (Homo sapiens) (O94804 whole entry, looked up): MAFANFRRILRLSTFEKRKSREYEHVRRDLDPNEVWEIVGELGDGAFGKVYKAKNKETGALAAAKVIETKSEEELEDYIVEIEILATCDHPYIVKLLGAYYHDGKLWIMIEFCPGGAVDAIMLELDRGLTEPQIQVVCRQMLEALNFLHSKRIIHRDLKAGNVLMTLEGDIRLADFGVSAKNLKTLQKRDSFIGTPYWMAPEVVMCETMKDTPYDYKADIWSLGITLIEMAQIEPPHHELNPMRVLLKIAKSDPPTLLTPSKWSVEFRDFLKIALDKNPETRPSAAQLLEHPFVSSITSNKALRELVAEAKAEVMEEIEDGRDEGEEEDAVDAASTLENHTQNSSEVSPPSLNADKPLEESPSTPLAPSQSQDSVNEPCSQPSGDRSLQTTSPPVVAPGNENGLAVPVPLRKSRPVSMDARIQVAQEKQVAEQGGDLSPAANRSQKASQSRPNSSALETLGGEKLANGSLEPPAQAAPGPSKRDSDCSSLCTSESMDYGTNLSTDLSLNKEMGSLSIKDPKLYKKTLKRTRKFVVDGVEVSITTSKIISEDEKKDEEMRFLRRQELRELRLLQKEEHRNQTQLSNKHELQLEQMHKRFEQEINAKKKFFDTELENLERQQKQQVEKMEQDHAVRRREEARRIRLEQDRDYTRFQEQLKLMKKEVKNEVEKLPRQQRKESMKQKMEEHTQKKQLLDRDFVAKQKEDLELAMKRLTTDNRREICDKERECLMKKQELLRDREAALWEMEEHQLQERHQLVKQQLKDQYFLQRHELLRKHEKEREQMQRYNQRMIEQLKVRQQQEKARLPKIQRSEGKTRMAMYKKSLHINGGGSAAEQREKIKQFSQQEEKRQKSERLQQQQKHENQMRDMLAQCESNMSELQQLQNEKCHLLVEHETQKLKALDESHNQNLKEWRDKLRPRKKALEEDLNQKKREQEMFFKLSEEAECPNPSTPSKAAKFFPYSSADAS
Sequence of Serine/threonine-protein kinase PLK1 (Homo sapiens) (P53350 whole entry): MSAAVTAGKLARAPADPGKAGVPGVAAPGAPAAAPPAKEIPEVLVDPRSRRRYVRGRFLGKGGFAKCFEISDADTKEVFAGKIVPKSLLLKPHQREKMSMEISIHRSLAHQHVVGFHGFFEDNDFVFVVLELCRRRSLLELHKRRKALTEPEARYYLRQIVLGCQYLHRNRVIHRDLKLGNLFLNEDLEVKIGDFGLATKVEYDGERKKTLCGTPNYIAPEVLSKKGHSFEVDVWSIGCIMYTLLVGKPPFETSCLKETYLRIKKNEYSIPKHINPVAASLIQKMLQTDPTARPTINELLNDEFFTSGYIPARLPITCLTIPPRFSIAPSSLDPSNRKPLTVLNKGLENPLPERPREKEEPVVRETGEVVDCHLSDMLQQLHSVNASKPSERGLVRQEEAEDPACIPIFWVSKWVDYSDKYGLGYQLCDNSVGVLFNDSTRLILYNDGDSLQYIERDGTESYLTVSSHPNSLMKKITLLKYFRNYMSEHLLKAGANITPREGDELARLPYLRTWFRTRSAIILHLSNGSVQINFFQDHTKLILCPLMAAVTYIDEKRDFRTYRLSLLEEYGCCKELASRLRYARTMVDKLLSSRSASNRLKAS
Sequence of Serine/threonine-protein kinase PAK 5 (Homo sapiens) (Q9P286 whole entry, looked up): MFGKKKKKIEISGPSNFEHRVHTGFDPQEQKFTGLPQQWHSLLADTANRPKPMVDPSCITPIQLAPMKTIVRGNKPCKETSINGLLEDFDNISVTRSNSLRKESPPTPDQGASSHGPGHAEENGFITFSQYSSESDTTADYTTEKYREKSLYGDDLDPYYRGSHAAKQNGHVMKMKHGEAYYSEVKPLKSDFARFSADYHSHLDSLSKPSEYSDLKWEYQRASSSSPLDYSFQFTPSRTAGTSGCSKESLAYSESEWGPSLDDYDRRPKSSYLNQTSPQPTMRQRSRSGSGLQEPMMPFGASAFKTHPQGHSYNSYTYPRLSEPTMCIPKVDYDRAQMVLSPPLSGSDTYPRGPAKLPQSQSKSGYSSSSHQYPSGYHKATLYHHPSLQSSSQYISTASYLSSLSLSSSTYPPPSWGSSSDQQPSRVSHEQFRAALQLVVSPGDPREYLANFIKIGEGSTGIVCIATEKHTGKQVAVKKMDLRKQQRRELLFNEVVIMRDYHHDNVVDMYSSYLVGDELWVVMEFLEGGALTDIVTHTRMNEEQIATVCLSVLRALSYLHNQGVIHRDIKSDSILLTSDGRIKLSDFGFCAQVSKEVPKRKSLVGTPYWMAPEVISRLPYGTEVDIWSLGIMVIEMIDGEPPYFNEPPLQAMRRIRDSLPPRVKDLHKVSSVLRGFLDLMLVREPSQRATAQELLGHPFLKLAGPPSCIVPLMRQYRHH
Sequence of Mitogen-activated protein kinase 6 (Homo sapiens) (Q16659 whole entry): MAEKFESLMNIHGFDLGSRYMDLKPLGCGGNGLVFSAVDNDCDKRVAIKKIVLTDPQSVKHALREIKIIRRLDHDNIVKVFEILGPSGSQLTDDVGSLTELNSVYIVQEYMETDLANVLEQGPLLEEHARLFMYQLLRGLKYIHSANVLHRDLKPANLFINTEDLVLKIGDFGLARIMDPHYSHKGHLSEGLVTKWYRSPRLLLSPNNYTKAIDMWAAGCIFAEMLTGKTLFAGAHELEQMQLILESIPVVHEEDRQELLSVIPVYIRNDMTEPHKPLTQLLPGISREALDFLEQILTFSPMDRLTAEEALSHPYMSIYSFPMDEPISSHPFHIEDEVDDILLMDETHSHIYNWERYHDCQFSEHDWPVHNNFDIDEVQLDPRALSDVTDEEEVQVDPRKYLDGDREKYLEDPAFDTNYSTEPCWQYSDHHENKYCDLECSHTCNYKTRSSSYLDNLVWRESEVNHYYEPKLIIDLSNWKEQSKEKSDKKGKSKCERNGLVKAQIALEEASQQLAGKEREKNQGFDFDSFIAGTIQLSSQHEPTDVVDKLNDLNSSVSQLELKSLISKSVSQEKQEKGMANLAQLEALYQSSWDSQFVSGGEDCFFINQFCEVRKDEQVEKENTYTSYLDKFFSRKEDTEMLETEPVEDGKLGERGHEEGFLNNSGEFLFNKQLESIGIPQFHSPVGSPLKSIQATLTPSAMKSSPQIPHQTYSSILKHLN

Regarding `CN(c1cccnc1)c1cc2c(Nc3ccc(F)c(Cl)c3)c(C#N)cnc2cn1`, the ΔTm in assay [1] was 4.8 °C; in [2], 3.4 °C; in assay [3], -0.5 °C; in assay [4], 5.4 °C; in [5], 5 °C; in [6], 1.2 °C. Moreover, the ΔTm was 0.4 °C in [7]; 3.7 °C in assay [8]; 0.4 °C in [9]; 4.2 °C in assay [10]; 1 °C in assay [11]; -0.2 °C in [12]. Also, the ΔTm worked out at 0.1 °C in assay [13]; 10.7 °C in assay [14]; 0.7 °C in assay [15]; 8.2 °C in [16]; 2.8 °C in assay [17]; 4.7 °C in assay [18]. Also, in [19], the ΔTm worked out at 0.7 °C.

As to `NCCNc1ncc(C(N)=O)c(Nc2cccc(C(F)(F)F)c2)n1`, the ΔTm in assay [1] is 0.3 °C; in assay [2], -0.3 °C; in [3] it was 0.1 °C; in assay [4], 0.6 °C; in assay [5], 6.6 °C; in [6], 1 °C. Besides, the ΔTm stood at 0.7 °C in assay [7]; 5.9 °C in assay [8]; 1.4 °C in [9]; 3 °C in [10]; 5.2 °C in [11]; 0.9 °C in assay [12]. Also, the ΔTm came out at 5.7 °C in [13]; 0.7 °C in assay [14]; 0.7 °C in assay [15]; 0.3 °C in assay [16]; 2.8 °C in [17]; 3.2 °C in assay [18]. In assay [19], the ΔTm was 0.1 °C.

Take `Cc1[nH]c(/C=C2\C(=O)Nc3ccc(S(=O)(=O)N(C)c4cccc(Cl)c4)cc32)c(C)c1C(=O)N1CCN(C)CC1`: the ΔTm in assay [1] was 4 °C; in assay [2], 3 °C; in assay [3], -0.4 °C; in [4], -0.5 °C; in assay [5], 2.9 °C; in assay [6] it was 3.7 °C. The ΔTm in assay [7] came out at 0.3 °C; in assay [8], 1.1 °C; in assay [9], 3.4 °C; in assay [10] it was 1.4 °C; in assay [11] it was 0.9 °C; in [12], 2 °C. In addition, the ΔTm was -0.2 °C in assay [13]; 1 °C in [14]; 1.9 °C in assay [15]; 0.8 °C in [16]; 1.8 °C in [17]; 3.3 °C in assay [18]. In addition, the ΔTm in assay [19] is -0.2 °C.

Consider `O=C(Nc1cccc(Nc2nccc(Nc3cccc(C(F)(F)F)c3)n2)c1)C1CC1` [ANILINOPYRIMIDINE1], for which the ΔTm in assay [1] was 1.5 °C; in assay [2], 0.3 °C; in assay [3], 0 °C; in assay [4] it was 1.6 °C; in assay [5], 3.8 °C; in assay [6], 0.6 °C. The ΔTm is 6.5 °C in [7]; 2.2 °C in assay [8]; 2.6 °C in assay [9]; 1.8 °C in [10]; 2.6 °C in assay [11]; -0.9 °C in assay [12]. Further, the ΔTm in [13] amounted to 7.3 °C; in [14], 6.9 °C; in assay [15] it was 3.3 °C; in assay [16], 2.2 °C; in assay [17] it was 1 °C; in [18] it was 1.5 °C. For the same molecule, in assay [19], the ΔTm was 0.7 °C.

Consider `O=C(Nc1cccc(Nc2cc(Nc3cccc(C(F)(F)F)c3)ncn2)c1)C1CC1`, for which the shift in melting temperature (ΔTm) is -3.7 °C in assay [1]; 1.8 °C in [2]; -1.5 °C in assay [3]; 1.5 °C in assay [4]; 2.4 °C in assay [5]; 1.5 °C in assay [6]. The ΔTm is 2.3 °C in assay [7]; 0.2 °C in assay [8]; 1.7 °C in assay [9]; 2.1 °C in assay [10]; 1 °C in assay [11]; -0.3 °C in [12]. The shift in melting temperature (ΔTm) amounted to 1 °C in assay [13]; 2.3 °C in assay [14]; 0 °C in [15]; 2 °C in assay [16]; 0 °C in [17]; 1.5 °C in assay [18]. Also, the ΔTm in assay [19] turned out to be 0.8 °C.

In the case of `Cc1ccc(NC2=CC(=O)c3sc(C)nc3C2=O)cc1`, the ΔTm in [1] was 0 °C; in [2], -0.7 °C; in [3], 0.2 °C; in [4], -1.3 °C; in assay [5] it was -1.8 °C; in [6], -0.5 °C. In addition, the ΔTm is 0 °C in assay [7]; -4.3 °C in assay [8]; -0.9 °C in assay [9]; -0.3 °C in assay [10]; 0.4 °C in assay [11]; -2.1 °C in assay [12]. The ΔTm is -1.3 °C in assay [13]; -0.6 °C in assay [14]; -0.2 °C in assay [15]; -0.3 °C in assay [16]; -0.7 °C in assay [17]; -0.8 °C in assay [18]. For the same molecule, the ΔTm in assay [19] is -0.5 °C.

Turning to `COc1cc2c(cc1OC)-c1n[nH]c(Nc3cccc(F)c3)c1C2`, the ΔTm in assay [1] is -0.3 °C; in assay [2] it was 0.3 °C; in assay [3] it was 0 °C; in [4], -0.1 °C; in [5], -0.1 °C; in assay [6], 0.4 °C. Further, the ΔTm was 0.3 °C in [7]; 0.8 °C in assay [8]; 0.4 °C in [9]; -0.3 °C in [10]; -0.1 °C in [11]; 0.5 °C in [12]. Also, the ΔTm in [13] was 0.5 °C; in [14] it was 0.2 °C; in assay [15], -0.2 °C; in [16], 1.5 °C; in [17] it was 2.5 °C; in assay [18], 1.3 °C. Further, in assay [19], the ΔTm was -0.2 °C.
